The series can be described thus: solvent given as SMILES.

SMILES strings stand for the structures.

Consider `COc1ccc(-c2cc(-c3ccc(C)cc3)nc3c(C#N)c(N4CCCC4)nc(N)c23)cc1`, for which the fluorescence lifetime is, setting by setting: (in CC#N) 11.7 ns; (in CC(C)=O) 11.3 ns; (in CC(C)O) 11.7 ns; (in CO) 10.3 ns; (in ClC(Cl)Cl) 13.1 ns; (in ClCCl) 13.3 ns. For the setting “in c1ccccc1”, the fluorescence lifetime came out at 12 ns.
In turn, `COc1ccc(C#Cc2c3ccccc3c(C#Cc3ccc(OC)cc3)c3cc4sc(C)cc4cc23)cc1` displayed a fluorescence lifetime (in ClCCl) of 5.3 ns.
`O=C1NC(=O)c2ccc3c4ccc5c6c(ccc(c7ccc1c2c73)c64)C(=O)N(c1ccc(Cl)cc1)C5=O`: for the setting “in CN(C)C=O”, the fluorescence lifetime was found to be 3.1 ns.
As for `CCC1=C(C)C2C(c3ccc(-c4ccc(-c5nc6c7ccccc7c7ccccc7c6n5-c5ccc(C(C)(C)C)cc5)cc4)cc3)c3c(C)c(CC)c(C)n3[B-](F)(F)[N+]2=C1C` (configuration not stated), the fluorescence lifetime (in ClC(Cl)Cl) worked out at 17 ns.
Consider `CN(C)c1ccc(C2=Nc3scc(-c4ccc(N(C)C)cc4)[n+]3[B-](F)(F)O2)cc1`, for which the fluorescence lifetime (in C1CCOC1) was found to be 0.21 ns.
`CN(C)c1ccc(-c2ccc(C#N)s2)s1`: the fluorescence lifetime (in CCO) worked out at 2.72 ns.
Regarding `COc1ccc(N(c2ccc(OC)cc2)c2ccc(-c3ccc4c(c3)C(=O)c3ccccc3C4=O)cc2)cc1`, the fluorescence lifetime runs as follows: (in CCCCCC) 7.04 ns; (in Cc1ccccc1) 1.09 ns; (in ClC(Cl)(Cl)Cl) 5.94 ns.
As to `CCN(CC)c1ccc2cc(C#N)c(=N)oc2c1`, the fluorescence lifetime (in ClCCl) was found to be 2.9 ns.
With `CSc1sc(C(C)=O)c2nn[nH]c(=O)c12`, the fluorescence lifetime worked out at 0.42 ns (in C1CCOC1); 0.75 ns (in CC#N); 0.41 ns (in CCO); 0.25 ns (in CN(C)C=O); 0.33 ns (in CO); 0.15 ns (in CS(C)=O).
For the compound `O=S1(=O)c2ccccc2C2(c3cc(-c4ccc(-n5c6ccccc6c6ccccc65)cc4)ccc3-c3ccc(-c4ccc(-n5c6ccccc6c6ccccc65)cc4)cc32)c2ccccc21`, for the setting “in ClCCl”, the fluorescence lifetime amounted to 0.9 ns.
Compound `CCC(CC)n1c2ccccc2c2cc3c(cc21)c1ccccc1n3C(CC)CC` displayed a fluorescence lifetime (in ClC(Cl)Cl) of 3.05 ns.
As to `CCCCN1C(=O)c2cc(Oc3ccc(C(C)(C)C)cc3)c3c4c(Oc5ccc(C(C)(C)C)cc5)cc5c(=O)n6c(c7cc(Oc8ccc(C(C)(C)C)cc8)c(c8c(Oc9ccc(C(C)(C)C)cc9)cc(c2c38)C1=O)c4c57)=Cc1cccc[n+]1[B-]6(F)F`, the fluorescence lifetime reads like this: (in C1CCOC1) 3.79 ns; (in Cc1ccccc1) 4.1 ns; (in ClCCl) 4.51 ns.
With `Cc1cc(=O)oc2cc3c4ccc(C(C)(C)C)cc4c4cc(C(C)(C)C)ccc4c3cc12`, the fluorescence lifetime (in ClC(Cl)Cl) was determined as 1.3 ns.
Regarding `COC(=O)C(Cc1ccc2oc(-c3ccc(N(C)c4ccccc4)cc3)nc2c1)NC(=O)OC(C)(C)C` (configuration not stated), the fluorescence lifetime (in C1CCCCC1) is 1.81 ns; the fluorescence lifetime (in C1CCOC1) came out at 5.29 ns; the fluorescence lifetime (in C1COCCO1) turned out to be 4.14 ns; the fluorescence lifetime (in CC1CCCO1) was 4.37 ns; the fluorescence lifetime (in CC1COC(=O)O1) stood at 4.3 ns; the fluorescence lifetime (in CC#N) was found to be 4.23 ns. Besides, the fluorescence lifetime reads like this: (in CC(C)=O) 5.11 ns; (in CC(C)CC(C)(C)C) 1.7 ns; (in CC(C)CO) 4.24 ns; (in CC(C)O) 4.41 ns; (in CC(O)CO) 0.88 ns; (in CCC(C)CC) 1.67 ns. The fluorescence lifetime was found to be 1.88 ns (in CCCCC); 1.66 ns (in CCCCCC); 1.78 ns (in CCCCCCCCC); 1.79 ns (in CCCCCCCCCC); 4.34 ns (in CCCCCCCO); 4.64 ns (in CCCCCCO). Besides, the fluorescence lifetime reads like this: (in CCCCCO) 5.44 ns; (in CCCCO) 3.97 ns; (in CCO) 1.59 ns; (in CCOC(C)=O) 4.68 ns; (in CCOCC) 4.4 ns; (in CN(C)C=O) 5.1 ns. The fluorescence lifetime reads like this: (in CO) 0.76 ns; (in COCCOC) 1.18 ns; (in CS(C)=O) 4.74 ns; (in Cc1ccccc1) 2.81 ns; (in Cc1ccccc1C) 2.7 ns; (in ClC(Cl)Cl) 4.71 ns. Further, the fluorescence lifetime came to 6.11 ns (in ClCCl); 2.35 ns (in NC=O); 4.88 ns (in OC1CCCCC1); 0.41 ns (in OCCO); 2.97 ns (in c1ccccc1).
On to `COc1cc(/C=C2/SC(=O)NC2=O)ccc1O`, for which the fluorescence lifetime by setting is: (in C1CCCCC1) 0.61 ns; (in C1COCCO1) 1.3 ns; (in CC#N) 0.291 ns; (in CN(C)C=O) 4.11 ns; (in CO) 0.25 ns; (in O) 0.281 ns. Besides, the fluorescence lifetime came to 5.79 ns (in OCC(O)CO) and 2.52 ns (in OCCO).
Take `COCCN1C(=O)/C(=C/c2cccc(N(C)C)c2)N=C1C`: the fluorescence lifetime worked out at 14.7 ns (in C1CCOC1), 7.9 ns (in CC#N) and 21.2 ns (in CCCCCC).
Consider `COc1ccc(-c2nc3c(c4c2-c2ccc(C#N)cc2CC4)-c2ccc(C#N)cc2CC3)cc1`, for which, under “in CS(C)=O”, the fluorescence lifetime turned out to be 0.27 ns.
Take `CCCCCc1c(C(=O)c2ccc3c4c(cccc24)-c2cccc4c2C3CC=C4)c2ccc3cccc4c5cccc6ccc1c(c65)c2c34` (configuration not stated): the fluorescence lifetime (in ClCCl) came to 1.09 ns.
On the same count and under the same terms, the result for `CC(C)(C)C#Cc1cc2c(C#CC(C)(C)C)c(C#CC(C)(C)C)c3cc(C#CC(C)(C)C)cc4c(C#CC(C)(C)C)c(C#CC(C)(C)C)c(c1)c2c34` reads 22.3 ns.
As for `c1ccc(-c2nc(-c3ccc(-c4ccc(-c5ccc(-c6nc(-c7ccccc7)c(-c7ccccc7)o6)cc5)cc4)cc3)oc2-c2ccccc2)cc1`, the fluorescence lifetime (in C1COCCO1) was 0.78 ns.
For the setting “in ClC(Cl)Cl”, `N#Cc1ccc(C#Cc2ccccc2C#N)cc1` displayed a fluorescence lifetime of 2.64 ns.
For the setting “in CCCCCC”, `CCOC(=O)c1cc(C)n2nc(-c3ccccc3)ccc12` registered a fluorescence lifetime of 17.4 ns.
Regarding `CN(C)c1ccc(-c2nc3cccnc3[nH]2)cc1`, the fluorescence lifetime came out at 1.08 ns (in C1CCCCC1) and 1.58 ns (in CC#N).
Consider `CCCCCCOc1ccc(/C=C/c2ccc(N(c3ccc(/C=C/c4ccc(OCCCCCC)cc4)cc3)c3ccc(-c4nc5ccccc5nc4-c4ccc(N(c5ccc(/C=C/c6ccc(OCCCCCC)cc6)cc5)c5ccc(/C=C/c6ccc(OCCCCCC)cc6)cc5)cc4)cc3)cc2)cc1`, for which the fluorescence lifetime (in C1CCOC1) was 2.05 ns.
`COC(=O)c1ccc(C2=C3C=CC(C)=[N+]3[B-](F)(F)n3c(C)ccc32)cc1` showed a fluorescence lifetime (in C1CCCCC1) of 0.54 ns and a fluorescence lifetime (in Cc1ccccc1) of 0.82 ns.
In turn, `CC1(C)c2ccccc2N(c2ccc3nc4c5ccc(N6c7ccccc7C(C)(C)c7ccccc76)cc5c5cc(N6c7ccccc7C(C)(C)c7ccccc76)ccc5c4nc3c2)c2ccccc21` yielded a fluorescence lifetime (in c1cc(-c2cccc(-n3c4ccccc4c4ccccc43)c2)cc(-n2c3ccccc3c3ccccc32)c1) of 32 ns.
On to `CCCCCCCCCCCCn1cccc1/C=C/c1cc(OCCCC)c(/C=C/c2cccn2CCCCCCCCCCCC)cc1OCCCC`, for which the fluorescence lifetime (in Cc1ccccc1) is 1.26 ns.
Regarding `CCOC(=O)c1ccc(C2CC(c3cccc4ccccc34)=NN2c2ccc(C)cc2)cc1` (configuration not stated), the fluorescence lifetime (in ClCCl) was found to be 4.56 ns.
On to `COc1ccc(-c2ccc3c(c2)c2cc(-c4ccc(OC)cc4)ccc2n3-c2ccc(C(=O)c3ccc4sc5ccccc5c4c3)cn2)cc1`, for which the fluorescence lifetime (in c1cc(-n2c3ccccc3c3ccccc32)cc(-n2c3ccccc3c3ccccc32)c1) came out at 5.9 ns.
As to `O=C1c2ccc(N(c3ccccc3)c3ccccc3)cc2C(=O)c2ccc(N(c3ccccc3)c3ccccc3)cc21`, the fluorescence lifetime was determined as 5.3 ns (in Cc1ccccc1) and 4.9 ns (in c1ccc2c(c1)c1ccccc1n2-c1ccc(-c2ccc(-n3c4ccccc4c4ccccc43)cc2)cc1).
Consider `CCN(CC)c1ccc(-c2nc3c4ccccc4n(C)c3nc2-c2ccc(B(c3c(C)cc(C)cc3C)c3c(C)cc(C)cc3C)cc2)cc1`, for which the fluorescence lifetime (in C1CCOC1) worked out at 9.21 ns.

The values are drawn from the Deep4Chem optical property database.
